Measured values from paper PMC6418270, “The pharmacological and functional characterization of the serotonergic system in Anopheles gambiae and Aedes aegypti: influences on flight and blood-feeding behavior” (Scientific Reports, 2019).
Structures can show the parent of a compound that is named as a salt.

How the values were obtained:
Ae. aegypti [1] = assay: Blood-feeding assay after ingestion of compound in 10% sucrose; format: in vivo, Aedes aegypti
Method: Sucrose solution was withheld from newly-emerged mosquitoes for two days. On the third day, the mosquitoes were presented with a cotton ball saturated with 400 μL of a 10% sucrose solution laced with compound or the respective control for five days. The cotton ball was exchanged every other day with a fresh one. Seven to ten-day old female mosquitoes were treated with compound or appropriate control through microinjection post cold-anesthetization or ingestion. Two mL of human O^+ blood (BioChemed Services, Winchester, VA) was utilized to cover the concave surface of an inverted baby food jar. Hog intestine sealed the opening to simulate the puncturing of a host’s skin. The feeding membrane was placed on the top of a mosquito cage, and hot water was poured into the jar to warm the blood. After a 45-minute feed, the mosquitoes were immediately preserved at −20 °C. The blood meal size was determined for each mosquito via hemoglobinometry as previously described. Luminescence and calcium assay data were normalized and fitted with a non-linear least squares regression to generate dose-response curves, EC50 and IC50 values. Unpaired t-tests or Dunnett’s multiple comparisons test were performed accordingly to compare EC50 or IC50 values. Locomotion was measured based on the distance required for flight recovery. Data were compared with the Kruskal-Wallis and Dunnett’s multiple comparison tests after the Kolmogorov-Smirnov normality test was conducted. In the blood-feeding experiments, the percentage of blood-fed mosquitoes was calculated for each treatment group. For each biological replicate, the treatment groups were normalized with respect to the untreated group. Dunnett’s multiple comparison tests were utilized to determine statistical difference between normalized data. Size of bloodmeals were compared with an unpaired t-test or Mann-Whitney test after normality was evaluated with the Kolmogorov-Smirnov test. All analyses were performed utilizing GraphPad Prism version 7.00 for Mac OS X, GraphPad Software, La Jolla California USA, www.graphpad.com.

Ae. aegypti [2] = assay: Mortality on 10% sucrose solution containing compound; format: in vivo; details: after a three-day period
Method: The serotonergic system was manipulated to identify its role in blood-feeding behavior. To allow for the depletion of 5-HT, mosquitoes were fed a 10% sucrose solution containing varying concentrations (1, 5, 10, 25, and 60 mg/mL) of PCPA ethyl ester, a compound that […] tryptophan hydroxylase, a crucial enzyme in 5-HT synthesis. At the two highest concentrations (25 and 60 mg/mL), there was a 100% mortality rate after a three-day period. […] In comparison to the control group, which ingested an average volume of 1.87μL of blood, the average blood meal size for 1 and 5 mg/mL PCPA-treated groups was 1.84 ± 0.16 μL (p = 0.89) and 2.33 ± 0.25 μL (p = 0.12), respectively.
Sucrose solution was withheld from newly-emerged mosquitoes for two days. On the third day, the mosquitoes were presented with a cotton ball saturated with 400 μL of a 10% sucrose solution laced with compound or the respective control for five days. The cotton ball was exchanged every other day with a fresh one.

AGAP002229 [3] = molecular target: T1, AGAP002229 (Anopheles gambiae, UniProt A7UR33); assay: Fluo-4 calcium assay in CRE-luc2P HEK-293 cells expressing AGAP002229; format: cell-based; details: for Response to biogenic amines: 10^−4 M; for Response to biogenic amines / Receptor activation by agonist: AGAP002229; for Ability to inhibit activity in a dose-response manner: antagonist test, receptor not given, taken as both 5-HT2 cell lines
Method: A week post-transfection, selective pressure was applied with […] of G418 antibiotic to generate stable lines.
1 × 10^6 cells per well were seeded into a 96-well black all-clear bottom plate and incubated overnight in 10% FBS/90% DMEM at 37 °C with an atmosphere of 5% CO2. The following day, 2X Fluo-4 Direct calcium dye (Molecular Devices LLC, San Jose, CA) was added to each well and incubated in the same conditions for 45 minutes before the assay was completed. At this time, serial dilutions of the test compounds were prepared in a 96-well clear flat bottom plate. […] Fluorescence measurements continued to be recorded for a total of 120 seconds at 2-second intervals. When testing antagonists, cells were treated with the compound prior to determination of fluorescence levels.
(§1) Luminescence and calcium assay data were normalized and fitted with a non-linear least squares regression to generate dose-response curves, EC50 and IC50 values. Unpaired t-tests or Dunnett’s multiple comparisons test were performed accordingly to compare EC50 or IC50 values. Locomotion was measured based on the distance required for flight recovery. Data were compared with the Kruskal-Wallis and Dunnett’s multiple comparison tests after the Kolmogorov-Smirnov normality test was conducted. In the blood-feeding experiments, the percentage of blood-fed mosquitoes was calculated for each treatment group. For each biological replicate, the treatment groups were normalized with respect to the untreated group. Dunnett’s multiple comparison tests were utilized to determine statistical difference between normalized data. Size of bloodmeals were compared with an unpaired t-test or Mann-Whitney test after normality was evaluated with the Kolmogorov-Smirnov test. All analyses were performed utilizing GraphPad Prism version 7.00 for Mac OS X, GraphPad Software, La Jolla California USA, www.graphpad.com.

AGAP002232 [4] = molecular target: T2, AGAP002232 (Anopheles gambiae, UniProt A0A1S4GEY1); assay: Fluo-4 calcium assay in CRE-luc2P HEK-293 cells expressing AGAP002232; format: cell-based; details: for Response to biogenic amines: 10^−4 M, AGAP002232; for Ability to inhibit activity in a dose-response manner: antagonist test, receptor not given, taken as both 5-HT2 cell lines
Method: The GloResponse™ CRE-luc2P human embryonic kidney (HEK-293) reporter cells were incubated at 37 °C with an atmosphere of 5% CO2, and maintained in Dulbecco’s Modified Eagle Medium (DMEM) supplemented with 10% fetal bovine serum (FBS) and […] hygromycin B. Transfection of the HEK-293 cells with 1 μg of plasmid DNA was performed with Amaxa Nucleofector™ technology (Lonza, Basel, Switzerland) as per manufacturer’s instructions. A week post-transfection, selective pressure was applied with […] of G418 antibiotic to generate stable lines.
1 × 10^6 cells per well were seeded into a 96-well black all-clear bottom plate and incubated overnight in 10% FBS/90% DMEM at 37 °C with an atmosphere of 5% CO2. The following day, 2X Fluo-4 Direct calcium dye (Molecular Devices LLC, San Jose, CA) was added to each well and incubated in the same conditions for 45 minutes before the assay was completed. At this time, serial dilutions of the test compounds were prepared in a 96-well clear flat bottom plate. Fluorescence levels were determined with a FlexStation3 microplate reader, with excitation and emission wavelengths set to 485 and 525 nm, respectively (Molecular Devices LLC). Basal fluorescence levels were measured for 17 seconds, at which time, 25 μl of the agonist compound was added. Fluorescence measurements continued to be recorded for a total of 120 seconds at 2-second intervals. When testing antagonists, cells were treated with the compound prior to determination of fluorescence levels.
as §1

Ae. aegypti [5] = assay: Flight performance in flight cylinder after microinjection; format: in vivo, Aedes aegypti
Method: (§2) Stock solutions of the compounds were diluted to the appropriate concentrations in 1X phosphate buffer solution (PBS). To account for potential solvent effects, an ultrapure H2O control group was included in every independent experiment. Female mosquitoes were either cold- or CO2-anesthetized. A Nanoject II Auto-Nanoliter Injector (Drummond Scientific Company, Broomall, PA) was then utilized to microinject 69 nL of compound into the spiracle.
A flight cylinder was assembled as described previously. The polyacrylamide sheet was coated with Tangle-Trap Sticky Coating (The Scotts Company LLC, Marysville, OH) and allowed to sit overnight before insertion into the flight cylinder. Adult mosquitoes were anesthetized on a CO2 pad and microinjected with the compound or ultrapure H2O control. Post-injection, they were permitted to recover in a fly vial for 30 minutes before being ejected into the flight cylinder. After each trial, the distance between the top of the cylinder and the trapped mosquito was recorded. Mosquitoes captured in the fly vial at the bottom of the cylinder were considered to be incapable of flying and a distance of 91.5 cm was recorded.
as §1

AGAP002232 [6] = molecular target: T2, AGAP002232; assay: GloResponse CRE-luc2P cyclic AMP reporter (luminescence) assay, AGAP002232; format: cell-based; details: 10^−4 M
Method: (§3) The reporter construct in the HEK-293 cells regulated the transcription of the luciferase gene in response to cAMP levels, while the Rluc-Neo^r construct in the pF9a expression plasmid served as a normalizing agent. Cells suspended in 1% FBS/99% DMEM without phenol red were seeded in white 96-well plates at a density of 6.6 × 10^5 per well, and immediately treated with varying concentrations of compounds. Following a 4-hour incubation at 37 °C with an atmosphere of 5% CO2, the cells were prepared for a Dual-Glo luciferase assay according to the manufacturer’s instructions (Promega Corporation, Madison, WI). The luminescence units were measured on the SpectraMax L 96 microplate luminometer (Molecular Devices, Sunnyvale, CA) and normalized to the cell number.

Ae. aegypti [7] = assay: Blood-feeding assay (artificial membrane feeder) after microinjection; format: in vivo, Aedes aegypti; details: 10 mM microinjected
Method: as §2
Seven to ten-day old female mosquitoes were treated with compound or appropriate control through microinjection post cold-anesthetization or ingestion. Two mL of human O^+ blood (BioChemed Services, Winchester, VA) was utilized to cover the concave surface of an inverted baby food jar. Hog intestine sealed the opening to simulate the puncturing of a host’s skin. The feeding membrane was placed on the top of a mosquito cage, and hot water was poured into the jar to warm the blood. After a 45-minute feed, the mosquitoes were immediately preserved at −20 °C. The blood meal size was determined for each mosquito via hemoglobinometry as previously described.
as §1

AGAP002229 [8] = molecular target: T1, AGAP002229; assay: GloResponse CRE-luc2P cyclic AMP reporter (luminescence) assay, AGAP002229; format: cell-based; details: 10^−4 M
Method: as §3

5-HT7 receptors = tested on: 5-HT7 receptors; parameters: method as in PMID 11282322; details: in humans; cited from earlier work
An. gambiae = details: cited from earlier work

T1 sequence (A7UR33 entry or part of it): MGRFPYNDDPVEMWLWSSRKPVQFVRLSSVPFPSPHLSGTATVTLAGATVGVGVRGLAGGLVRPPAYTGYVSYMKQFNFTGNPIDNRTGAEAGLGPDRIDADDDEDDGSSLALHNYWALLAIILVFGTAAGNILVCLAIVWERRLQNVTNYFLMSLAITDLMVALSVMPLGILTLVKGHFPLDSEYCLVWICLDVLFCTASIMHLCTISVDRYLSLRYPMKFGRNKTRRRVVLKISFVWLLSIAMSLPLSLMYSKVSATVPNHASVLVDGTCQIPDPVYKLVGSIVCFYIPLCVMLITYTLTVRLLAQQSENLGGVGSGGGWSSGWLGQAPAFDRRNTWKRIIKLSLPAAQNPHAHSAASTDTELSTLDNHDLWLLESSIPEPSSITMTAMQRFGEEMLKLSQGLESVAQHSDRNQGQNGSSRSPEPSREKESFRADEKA
T2 sequence (A0A1S4GEY1 entry or part of it): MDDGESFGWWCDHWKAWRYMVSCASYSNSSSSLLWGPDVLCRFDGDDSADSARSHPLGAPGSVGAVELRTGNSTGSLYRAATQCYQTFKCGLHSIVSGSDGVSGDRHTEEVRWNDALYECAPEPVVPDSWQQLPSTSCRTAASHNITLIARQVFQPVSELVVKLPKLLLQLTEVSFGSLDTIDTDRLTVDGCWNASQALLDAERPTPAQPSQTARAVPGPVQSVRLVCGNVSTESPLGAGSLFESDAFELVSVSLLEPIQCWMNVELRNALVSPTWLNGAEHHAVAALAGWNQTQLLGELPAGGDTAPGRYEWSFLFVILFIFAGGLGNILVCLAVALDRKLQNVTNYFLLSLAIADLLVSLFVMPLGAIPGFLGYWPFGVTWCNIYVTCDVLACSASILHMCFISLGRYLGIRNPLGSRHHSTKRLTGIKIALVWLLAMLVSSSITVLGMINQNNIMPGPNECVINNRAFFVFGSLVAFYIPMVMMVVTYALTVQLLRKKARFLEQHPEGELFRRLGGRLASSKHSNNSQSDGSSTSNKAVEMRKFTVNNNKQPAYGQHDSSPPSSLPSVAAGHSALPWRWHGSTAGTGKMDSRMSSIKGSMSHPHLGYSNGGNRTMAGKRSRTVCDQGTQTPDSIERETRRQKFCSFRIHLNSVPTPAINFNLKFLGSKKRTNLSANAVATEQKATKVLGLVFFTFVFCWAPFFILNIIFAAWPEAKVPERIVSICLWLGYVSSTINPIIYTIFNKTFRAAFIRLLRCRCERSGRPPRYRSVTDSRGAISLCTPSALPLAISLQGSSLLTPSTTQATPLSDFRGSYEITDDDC

CCOC(=O)C(N)Cc1ccc(Cl)cc1.Cl (racemic) [PCPA ethyl ester, 4-chloro-DL-chlorophenylalanine ethyl ester hydrochloride]
Average blood meal size (Ae. aegypti [1]; 1 mg/mL in 10% sucrose): 1.84 ± 0.16 µL | Feeding success or blood meal volume versus control (Ae. aegypti [1]; 1 mg/mL in 10% sucrose): did not demonstrate any significant difference | Average blood meal size (Ae. aegypti [1]; 5 mg/mL in 10% sucrose): 2.33 ± 0.25 µL | Feeding success or blood meal volume versus control (Ae. aegypti [1]; 5 mg/mL in 10% sucrose): did not demonstrate any significant difference | Average blood meal size (Ae. aegypti [1]; 10 mg/mL in 10% sucrose): 3.53 ± 0.16 µL | Blood feeding success rate (Ae. aegypti [1]; 10 mg/mL in 10% sucrose): 73.2% | Mortality rate (Ae. aegypti [2]; 25 mg/mL in 10% sucrose): 100% | Mortality rate (Ae. aegypti [2]; 60 mg/mL in 10% sucrose): 100%

NCC(O)c1ccc(O)cc1 (racemic) [octopamine, (±)-octopamine hydrochloride]
Response to biogenic amines (AGAP002229 [3]): indiscernible from background levels | Response to biogenic amines (AGAP002232 [4]): indiscernible from background levels

NCCc1c[nH]c2ccc(O)cc12 [5-HT, serotonin hydrochloride]
Effect on flight compared to H2O alone (Ae. aegypti [5]; 10 mM): did not affect flight | Average distance in flight cylinder (Ae. aegypti [5]; 10 mM, Fig. 5c): 25.1 cm | Ability to fly (Ae. aegypti [5]; concentrations greater than 10 mM): completely inhibited the mosquitoes’ ability to fly | EC50 (AGAP002229 [3]): 87.4 nM | EC50 (AGAP002232 [4]): 1900 nM | Receptor response (cyclic AMP) under Gαs and Gαi/o conditions (AGAP002232 [6]): no measurable responses | Successfully blood-fed, normalized to the untreated group (Ae. aegypti [7]): approximately 80% | Receptor response (cyclic AMP) under Gαs and Gαi/o conditions (AGAP002229 [8]): no measurable responses

COc1ccc2[nH]cc(CCN)c2c1 [5-MT, 5-methoxytryptamine]
EC50 (AGAP002229 [3]): 1080 nM | Receptor activation by agonist (AGAP002229 [3]): able to activate

NCCc1c[nH]c2ccc(C(N)=O)cc12 [5-carboxamidotryptamine]
Affinity for 5-HT7 receptors (5-HT7 receptors): strong affinity

CCCN(CCC)C1CCc2cccc(O)c2C1 (stereo not shown) [8-OH-DPAT]
Affinity for 5-HT7 receptors (5-HT7 receptors): strong affinity

CN(C)CCCC1(c2ccc(F)cc2)OCc2cc(C#N)ccc21 (stereo not shown) [citalopram]
Flight after microinjection into the thorax (An. gambiae): severe flight defects and a prolonged time for flight recovery

NCCc1ccc(O)c(O)c1 [dopamine, dopamine hydrochloride]
Response to biogenic amines (AGAP002229 [3]): indiscernible from background levels | Response to biogenic amines (AGAP002232 [4]): indiscernible from background levels

NCCc1c[nH]cn1 [histamine]
Response to biogenic amines (AGAP002229 [3]): indiscernible from background levels | Response to biogenic amines (AGAP002232 [4]): indiscernible from background levels

CN1CCN2c3ccccc3Cc3ccccc3C2C1 (stereo not shown) [mianserin, mianserin hydrochloride]
Ability to inhibit activity in a dose-response manner (AGAP002229 [3]): only the former two exhibited the ability to inhibit activity | Ability to inhibit activity in a dose-response manner (AGAP002232 [4]): only the former two exhibited the ability to inhibit activity

O=C(CCCN1CCC2(CC1)C(=O)NCN2c1ccccc1)c1ccc(F)cc1 [spiperone]
Ability to inhibit activity in a dose-response manner (AGAP002229 [3]): only the former two exhibited the ability to inhibit activity | Ability to inhibit activity in a dose-response manner (AGAP002232 [4]): only the former two exhibited the ability to inhibit activity

NCCc1c[nH]c2ccccc12 [tryptamine, tryptamine hydrochloride]
EC50 (AGAP002229 [3]): 2760 nM | Receptor activation by agonist (AGAP002229 [3]): able to activate

NCCc1ccc(O)cc1 [tyramine, tyramine hydrochloride]
Response to biogenic amines (AGAP002229 [3]): indiscernible from background levels | Response to biogenic amines (AGAP002232 [4]): indiscernible from background levels

COC(=O)[C@@H]1[C@H]2C[C@H]3c4[nH]c5ccccc5c4CCN3C[C@@H]2CC[C@@H]1O [yohimbine, yohimbine hydrochloride]
Ability to inhibit activity in a dose-response manner (AGAP002229 [3]): only the former two exhibited the ability to inhibit activity | Ability to inhibit activity in a dose-response manner (AGAP002232 [4]): only the former two exhibited the ability to inhibit activity
